Measurements from article PMC4774911, “Biochemical Screening of Five Protein Kinases from Plasmodium falciparum against 14,000 Cell-Active Compounds” (PLoS ONE, 2016).
Values joined by “and” are separate entries in the source; they are usually repeats but may differ in a detail not shown here. Equal entries are not always repeated.

Assays:
Assay in all cases: biochemical
Parameters in all cases: endogenous in cells; host or cells: K562 cell extract; species or system K562 (extract); replicate k of n = 2 (each experiment ID is one independent experiment; two experiment IDs per compound)
Conditions in all cases: read-out: KDapp
PHKG2 = target: T1, PHKG2 (Homo sapiens, UniProt P15735)
T1 sequence (P15735 1-406): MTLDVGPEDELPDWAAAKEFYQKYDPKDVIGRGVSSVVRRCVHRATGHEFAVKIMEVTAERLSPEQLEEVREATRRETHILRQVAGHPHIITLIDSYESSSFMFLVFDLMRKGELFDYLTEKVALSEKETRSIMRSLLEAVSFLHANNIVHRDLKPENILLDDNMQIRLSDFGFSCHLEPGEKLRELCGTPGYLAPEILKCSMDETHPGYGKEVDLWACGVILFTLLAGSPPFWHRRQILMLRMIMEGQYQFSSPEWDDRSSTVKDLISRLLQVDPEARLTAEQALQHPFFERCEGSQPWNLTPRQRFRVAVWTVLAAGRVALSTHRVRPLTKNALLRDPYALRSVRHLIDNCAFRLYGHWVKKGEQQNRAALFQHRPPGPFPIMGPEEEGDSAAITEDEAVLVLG

IKBKE = target: T2, IKBKE (Homo sapiens, UniProt Q14164)
T2 sequence (Q14164 1-716): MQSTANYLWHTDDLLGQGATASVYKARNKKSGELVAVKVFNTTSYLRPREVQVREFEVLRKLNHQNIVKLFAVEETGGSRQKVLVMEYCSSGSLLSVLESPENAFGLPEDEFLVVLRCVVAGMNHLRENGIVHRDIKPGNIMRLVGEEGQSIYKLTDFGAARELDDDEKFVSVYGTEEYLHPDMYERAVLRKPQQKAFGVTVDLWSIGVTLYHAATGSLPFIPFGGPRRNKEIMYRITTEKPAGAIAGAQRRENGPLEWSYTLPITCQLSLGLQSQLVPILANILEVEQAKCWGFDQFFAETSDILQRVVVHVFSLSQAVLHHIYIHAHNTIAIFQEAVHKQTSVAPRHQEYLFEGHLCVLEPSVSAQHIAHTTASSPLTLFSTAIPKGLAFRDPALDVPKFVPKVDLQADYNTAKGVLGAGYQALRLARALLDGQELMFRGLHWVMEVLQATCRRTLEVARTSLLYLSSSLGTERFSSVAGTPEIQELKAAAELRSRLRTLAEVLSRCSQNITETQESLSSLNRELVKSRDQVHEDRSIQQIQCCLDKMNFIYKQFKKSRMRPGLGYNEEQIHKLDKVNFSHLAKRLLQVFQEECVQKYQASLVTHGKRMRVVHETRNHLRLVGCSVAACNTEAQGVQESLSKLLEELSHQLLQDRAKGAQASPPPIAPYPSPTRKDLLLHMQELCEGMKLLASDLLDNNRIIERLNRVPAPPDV

MASTL = target: T3, MASTL (Homo sapiens, UniProt Q96GX5)
T3 sequence (Q96GX5 1-879): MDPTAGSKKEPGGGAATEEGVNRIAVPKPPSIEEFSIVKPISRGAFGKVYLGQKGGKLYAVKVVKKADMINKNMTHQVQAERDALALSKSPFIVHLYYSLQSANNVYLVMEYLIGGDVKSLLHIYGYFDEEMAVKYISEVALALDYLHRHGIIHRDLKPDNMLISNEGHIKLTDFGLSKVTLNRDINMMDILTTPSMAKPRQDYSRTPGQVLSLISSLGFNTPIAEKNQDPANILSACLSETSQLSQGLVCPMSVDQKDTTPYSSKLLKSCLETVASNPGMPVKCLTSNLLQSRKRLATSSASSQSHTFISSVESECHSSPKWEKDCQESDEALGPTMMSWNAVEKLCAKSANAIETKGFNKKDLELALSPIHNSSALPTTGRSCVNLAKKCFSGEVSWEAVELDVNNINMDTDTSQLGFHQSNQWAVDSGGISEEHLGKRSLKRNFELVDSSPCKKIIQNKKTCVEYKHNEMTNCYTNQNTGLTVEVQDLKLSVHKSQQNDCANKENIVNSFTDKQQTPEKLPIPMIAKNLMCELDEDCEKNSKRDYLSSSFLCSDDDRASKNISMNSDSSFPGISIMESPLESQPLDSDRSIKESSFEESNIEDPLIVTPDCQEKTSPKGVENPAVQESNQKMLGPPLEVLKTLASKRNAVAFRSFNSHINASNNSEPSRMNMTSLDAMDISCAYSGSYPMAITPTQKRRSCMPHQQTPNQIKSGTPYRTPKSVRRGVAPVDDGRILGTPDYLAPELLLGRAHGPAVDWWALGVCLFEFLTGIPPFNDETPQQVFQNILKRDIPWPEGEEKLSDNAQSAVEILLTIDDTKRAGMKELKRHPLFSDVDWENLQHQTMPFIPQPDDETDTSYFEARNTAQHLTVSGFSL

MAST3 = MAST3 (Homo sapiens, UniProt O60307)
PRKX = target: T4, PRKX (Homo sapiens, UniProt P51817)
T4 sequence (P51817 1-358): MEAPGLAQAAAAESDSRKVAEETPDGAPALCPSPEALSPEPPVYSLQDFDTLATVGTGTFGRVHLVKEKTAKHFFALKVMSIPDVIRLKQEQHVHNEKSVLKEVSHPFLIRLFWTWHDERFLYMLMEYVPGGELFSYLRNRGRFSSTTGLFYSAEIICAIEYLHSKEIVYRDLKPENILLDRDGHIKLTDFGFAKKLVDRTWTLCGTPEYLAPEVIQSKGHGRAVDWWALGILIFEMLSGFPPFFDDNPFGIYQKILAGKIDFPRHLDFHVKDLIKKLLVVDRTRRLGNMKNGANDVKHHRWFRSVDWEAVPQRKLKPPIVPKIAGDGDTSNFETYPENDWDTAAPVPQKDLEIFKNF

Chain of MAST3 (O60307 whole entry): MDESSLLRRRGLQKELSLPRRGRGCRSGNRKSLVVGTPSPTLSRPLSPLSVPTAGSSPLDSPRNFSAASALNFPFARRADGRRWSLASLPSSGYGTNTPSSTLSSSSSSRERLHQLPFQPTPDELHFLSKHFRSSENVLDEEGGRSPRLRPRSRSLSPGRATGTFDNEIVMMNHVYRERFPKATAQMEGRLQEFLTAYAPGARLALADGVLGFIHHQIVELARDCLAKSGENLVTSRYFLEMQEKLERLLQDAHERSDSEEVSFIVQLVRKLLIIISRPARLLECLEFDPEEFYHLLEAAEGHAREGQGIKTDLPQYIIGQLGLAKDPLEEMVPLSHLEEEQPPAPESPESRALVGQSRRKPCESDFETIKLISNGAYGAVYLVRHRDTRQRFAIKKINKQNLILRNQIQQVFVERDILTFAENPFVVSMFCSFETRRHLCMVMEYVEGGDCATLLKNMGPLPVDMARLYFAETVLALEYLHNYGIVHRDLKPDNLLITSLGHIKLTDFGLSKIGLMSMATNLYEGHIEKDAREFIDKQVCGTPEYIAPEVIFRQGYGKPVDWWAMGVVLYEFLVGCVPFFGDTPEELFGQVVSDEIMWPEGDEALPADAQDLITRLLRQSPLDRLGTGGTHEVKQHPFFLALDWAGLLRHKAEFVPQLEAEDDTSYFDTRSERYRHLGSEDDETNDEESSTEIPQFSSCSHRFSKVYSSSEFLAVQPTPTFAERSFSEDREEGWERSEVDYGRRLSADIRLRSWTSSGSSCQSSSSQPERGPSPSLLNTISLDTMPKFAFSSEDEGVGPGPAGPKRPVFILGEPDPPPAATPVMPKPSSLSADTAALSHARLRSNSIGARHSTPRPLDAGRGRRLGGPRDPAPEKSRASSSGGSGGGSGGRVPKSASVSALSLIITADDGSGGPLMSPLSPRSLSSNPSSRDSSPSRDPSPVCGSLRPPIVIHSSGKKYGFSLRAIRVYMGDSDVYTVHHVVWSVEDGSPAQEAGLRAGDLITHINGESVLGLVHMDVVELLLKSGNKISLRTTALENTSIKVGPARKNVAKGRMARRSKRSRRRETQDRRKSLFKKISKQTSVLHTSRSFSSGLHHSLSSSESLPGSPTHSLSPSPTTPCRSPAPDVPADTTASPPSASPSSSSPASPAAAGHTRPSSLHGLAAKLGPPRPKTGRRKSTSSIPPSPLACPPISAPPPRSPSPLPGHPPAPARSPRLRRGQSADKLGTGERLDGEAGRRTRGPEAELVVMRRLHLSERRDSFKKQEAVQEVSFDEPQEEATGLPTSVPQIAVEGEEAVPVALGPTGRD

CN1CCN(c2ccc(Nc3ncc(C#N)c(Nc4ccccc4C(N)=O)n3)cc2)CC1.Cl [TCMDC-134116]
Kd (PHKG2): 2250 nM | Kd (IKBKE): 954 nM | Kd (MASTL): 274 nM and 597 nM | Kd (MAST3): 73.1 nM | Kd (PRKX): 1030 nM
